# Test results published in publication PMC8774648, “Effects of Baicalein and Chrysin on the Structure and Functional Properties of β-Lactoglobulin” (Foods, 2022).
# Several values for one entry are separate records, joined by “and”; a condition that tells them apart may be missing. Equal values may be shown once. Marks after values point to notes of the source that are not given here.
# Assays:
# β-lactoglobulin (BLG) [1] = biological target: T1, β-lactoglobulin (BLG) (Bos taurus, UniProt P02754); test: Intrinsic fluorescence quenching of BLG by Bai/Chr (Stern–Volmer and double logarithmic equations); type: binding; conditions: for Kd: Ka (binding constant); for Kd / Ksv (Stern–Volmer quenching constant): pH 6.8
# T1 construct: purchased Sigma–Aldrich Co. (St. Louis, MO, USA)
# T1 sequence (P02754 17-178): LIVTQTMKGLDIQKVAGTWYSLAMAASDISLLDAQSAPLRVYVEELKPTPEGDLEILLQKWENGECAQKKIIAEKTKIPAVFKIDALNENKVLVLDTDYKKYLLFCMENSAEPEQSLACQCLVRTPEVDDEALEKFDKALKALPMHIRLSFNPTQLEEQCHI
# Experimental: (§1) Intrinsic fluorescence spectroscopic test was measured on a F–7000 spectrophotometer (Hitachi, Japan) equipped with temperature controller according to the method described in the previous study. Briefly, 3 mL solution of BLG (20.0 µM) was titrated by continuously adding different amounts of Bai or Chr (0–20.0 µM). The fluorescence spectra were recorded at different temperatures (298 K, 304 K, and 310 K) with the excitation wavelength of 280 nm and the excitation and emission slit set at 2.5 nm. Moreover, synchronous fluorescence spectra were conducted by setting the wavelength intervals (λem–λex) at 15 nm and 60 nm, respectively. The 3D fluorescence spectra (molar ratios of BLG to Bai/Chr were 1:0 and 1:1) were recorded at excitation and emission wavelength range of 200−600 nm. All the fluorescence values were corrected to eliminate the internal filtering effect according to the previous method, and were used to evaluate the quenching mechanism of Bai/Chr binding to BLG by using the following equation [21]:(1) F0/F=1+Kqτ0[Q]=1+KSV[Q] where F and F0 are the fluorescence intensities of fluorophore with and without quencher; Ksv denotes the Stern–Volmer quenching constant; Kq is the quenching rate constant (Kq = Ksv/τ0), and τ0 is the average lifetime of the biomolecule in the absence of a quencher (τ0 = 10^−8 s); [Q] represents the experimental concentration of Bai/Chr.
# For static fluorescence quenching mechanism, the binding constant (Ka) and the number of binding sites (n) could be determined by the following equation [22]:(2) logF0−F/F=nlogKa−nlog1/[Qt]−(F0−F)[Pt]/F0 where [Qt] and [Pt] are the concentrations of Bai/Chr and BLG, respectively.
# β-lactoglobulin (BLG) [2] = biological target: T1, β-lactoglobulin (BLG); test: Thermodynamic parameters of Bai/Chr–BLG binding (Van't Hoff equation)
# Experimental: In order to determine the primary forces between BLG and Bai/Chr, thermodynamic parameters were calculated using the following equations [23]:(3) logKa=−ΔH°/2.303RT+ΔS°/2.303R (4) ΔG°=ΔH°−TΔS° where R and T represent gas constant (8.314 J mol^−1 K^−1) and temperature (298, 304, and 310 K), respectively. Enthalpy change (ΔH°) and entropy change (ΔS°) of interaction between ligands and biomolecules are the main criteria for evaluating acting force, and free energy (ΔG°) is the main criteria for estimating the spontaneity of interaction.
# β-lactoglobulin (BLG) [3] = biological target: T1, β-lactoglobulin (BLG); test: Three-dimensional fluorescence spectra of BLG with Bai/Chr; conditions: c(BLG) = 20.0 µM, c(Bai/Chr) = 20.0 μM
# Experimental: as §1
# β-lactoglobulin (BLG) [4] = biological target: T1, β-lactoglobulin (BLG); test: CD spectra, secondary structure contents of BLG
# Experimental: The CD spectra in the range of 200–250 nm were obtained from a CD spectrometer (MOS 450, Bio–Logic, Claix, France) equipped with 1.0 mm path length cuvette under the constant nitrogen flush. The solutions were prepared with molar ratios of Bai or Chr to BLG of 0:1, 1:1, and 2:1, respectively. The contents of secondary structure of BLG were determined based on our previously reported study.
# β-lactoglobulin (BLG) [5] = biological target: T1, β-lactoglobulin (BLG); test: Free sulfhydryl (SH) content of BLG (DTNB); conditions: Bai/Chr 0 to 20.0 µM, BLG 20.0 µM
# Experimental: The content of free SH was determined by spectrophotometry according to the report by Takić et al. with minor modifications. Briefly, Bai/Chr concentrations were varied from 0 to 20.0 µM, and BLG was kept at 20.0 µM. Then the two solutions were incubated with 10.0 mM DTNB in 50 mM PBS (pH 6.8) for 30 min at room temperature. The absorbance of the sample at 412 nm was recorded and the molar extinction coefficient (14,360 M^−1 cm^−1) was obtained from the standard curve of L-cysteine, which was used to calculate the number of total sulfhydryl groups per gram of protein.
# β-lactoglobulin (BLG) [6] = biological target: T1, β-lactoglobulin (BLG); test: Protein surface hydrophobicity (PSH) of BLG with ANS probe
# Experimental: PSH of BLG in the presence or absence of Bai or Chr was determined using ANS as a fluorescent probe. In the BLG solution (20.0 µM) alone or Bai/Chr–BLG mixture the ANS solution (5 mM) was continuously added until the fluorescence intensity of the mixture remained constant. The fluorescence intensity of the sample was recorded in the wavelength range of 400–600 nm upon 380 nm excitation. The PSH values were calculated by the following equations [26]:(5) [ANS]bound=F/B (6) [ANS]free=[ANS]total−[ANS]bound (7) F/[ANS]free=−F/Kdapp−Fmax/Kdapp (8) PSH=Fmax/[BLG]Kdapp where [ANS]free and [ANS]bound are the concentration of free and bound ANS, respectively. Kdapp is the apparent dissociation constant of ANS, Fmax is the maximum fluorescence intensity at saturating ANS concentration and B is the proportionality coefficient.
# β-lactoglobulin (BLG) [7] = biological target: T1, β-lactoglobulin (BLG); test: Foaming ability and foaming stability of BLG
# Experimental: Foaming ability (FA) and foaming stability (FS) were measured as described by Wang et al. with some modifications. A certain amount of BLG solution (1.0 mg mL^−1) was added to a 100 mL cylinder, and Bai or Chr was added to form solutions with different ratios of BLG to Bai or Chr (40:1, 30:1, 20:1, 10:1). The initial height H0 of the foam was recorded. The foam was then sheared at 10,000 rpm in a high-speed dispersion machine for 1 min and the height of the foam was recorded as H1. The height of the foam was recorded as H2 30 min later. The FA (%) and FS (%) were calculated according to the following equations:(9) FA (%)=H1−H0/H0×100 (10) FS (%)=H2−H0/H1−H0×100
# β-lactoglobulin (BLG) [8] = biological target: T1, β-lactoglobulin (BLG); test: Emulsifying ability and emulsifying stability of BLG
# Experimental: Emulsifying ability (EA) and emulsifying stability (ES) were investigated by the method of Xiong et al. with slight modification. BLG solution (1 mg mL^−1) was added to Bai/Chr to form the solutions with different ratios of BLG to Bai/Chr (40:1, 30:1, 20:1, 10:1), and then soybean oil was added to form BLG solution containing 10% (v/v) oil. The emulsion was fully dispersed for 2 min at a rate of 7000 r min^−1 and repeated for three times. At 0 and 10 min, 30 µL of emulsion was extracted from the bottom of the sample and immediately added to 3 mL of 0.1% SDS solution. The absorbance of the sample was measured at 500 nm and recorded as A0 and A10, respectively. The EA (m^2 g^−1) and ES (min) were calculated according to the following equations:(11) EA (m^2 g^−1)=2×2.303/c×Φ×L×10^4×A0×D (12) ES (min)=A0/A0−A10×10 where c is the weight of the BLG per unit volume (g mL^−1), Φ is the volume fraction of the oil phase, L is the length of light path, and D is the dilution factor, D = 100.
# [9] = molar ratio of Bai/Chr to BLG 1:1
# [10] = molar ratio of Bai/Chr to BLG 2:1
# [11] = molar ratio of Bai/Chr to BLG 2:1, listed as Chr–BLG
structure (smiles),measurement,setting,value
"O=c1cc(-c2ccccc2)oc2cc(O)cc(O)c12 [Chr, chrysin]",Ka (binding constant),β-lactoglobulin (BLG) [1]; 298 K,214000 L/mol
same,Kd,β-lactoglobulin (BLG) [1]; T = 298 K,4.67 µM
same,Kd,β-lactoglobulin (BLG) [1]; T = 304 K,4.81 µM
same,Kd,β-lactoglobulin (BLG) [1]; T = 310 K,5.13 µM
same,n (number of binding sites),β-lactoglobulin (BLG) [1]; T = 298 K,1.45 ± 0.01
same,Ksv (Stern–Volmer quenching constant),β-lactoglobulin (BLG) [1]; T = 298 K,3.10 ± 0.04 ^d ×10^4 L mol^−1
same,n (number of binding sites),β-lactoglobulin (BLG) [1]; T = 304 K,1.01 ± 0.02
same,Ksv (Stern–Volmer quenching constant),β-lactoglobulin (BLG) [1]; T = 304 K,2.94 ± 0.06 ^e ×10^4 L mol^−1
same,n (number of binding sites),β-lactoglobulin (BLG) [1]; T = 310 K,1.29 ± 0.01
same,Ksv (Stern–Volmer quenching constant),β-lactoglobulin (BLG) [1]; T = 310 K,2.59 ± 0.04 ^f ×10^4 L mol^−1
same,BLG fluorescence quenching,"β-lactoglobulin (BLG) [1]; after 10 times titration, 298 K, c(BLG) = 20 µM",59.0%
same,n (number of binding sites),β-lactoglobulin (BLG) [1]; general statement for the three temperatures,approximately 1
same,ΔG° (free energy),β-lactoglobulin (BLG) [2]; T = 298 K,-30.41 kJ/mol
same,ΔG° (free energy),β-lactoglobulin (BLG) [2]; T = 304 K,-31.14 kJ/mol
same,ΔG° (free energy),β-lactoglobulin (BLG) [2]; T = 310 K,-31.88 kJ/mol
same,ΔH° (enthalpy change),"β-lactoglobulin (BLG) [2]; from Ka at 298, 304 and 310 K",6.21 kJ/mol
same,ΔS° (entropy change),"β-lactoglobulin (BLG) [2]; from Ka at 298, 304 and 310 K",122.18 J mol^−1 K^−1
same,fluorescence intensity of Peak 2 (3D fluorescence),β-lactoglobulin (BLG) [3]; free BLG 430.6,205.3
same,fluorescence intensity of Peak 1 (3D fluorescence),β-lactoglobulin (BLG) [3]; free BLG 522.1,378.5
same,Random Coil content of BLG,β-lactoglobulin (BLG) [4]; [9],25.96 ± 0.34 ^bc %
same,α-Helix content of BLG,β-lactoglobulin (BLG) [4]; [9],14.30 ± 0.47 ^c %
same,β-Sheet content of BLG,β-lactoglobulin (BLG) [4]; [9],35.18 ± 0.12 ^c %
same,β-Turn content of BLG,β-lactoglobulin (BLG) [4]; [9],24.56 ± 0.48 ^a %
same,Random Coil content of BLG,β-lactoglobulin (BLG) [4]; [10],31.16 ± 0.10 ^a %
same,β-Turn content of BLG,β-lactoglobulin (BLG) [4]; [10],24.53 ± 0.93 ^a %
same,α-Helix content of BLG,β-lactoglobulin (BLG) [4]; [11],11.25% and 11.25 ± 0.58 ^d %
same,β-Sheet content of BLG,β-lactoglobulin (BLG) [4]; [11],33.06% and 33.06 ± 0.30 ^e %
same,effect on contents of free SH group of BLG,β-lactoglobulin (BLG) [5],gradually weakened
same,F max (maximum fluorescence intensity at saturating ANS),β-lactoglobulin (BLG) [6]; molar ratio 1:1,151.76 ± 3.04 ^b
same,PSH (protein surface hydrophobicity),β-lactoglobulin (BLG) [6]; molar ratio 1:1,252.82 ± 5.07 ^c
same,Kdapp (apparent dissociation constant of ANS),"β-lactoglobulin (BLG) [6]; molar ratio 1:1, c(BLG) = 20.0 µM",5.67 ± 0.31 µM
same,Reduction Rate of PSH,"β-lactoglobulin (BLG) [6]; molar ratio 1:1, versus BLG alone",23.25 ± 0.47 ^b %
same,F max (maximum fluorescence intensity at saturating ANS),β-lactoglobulin (BLG) [6]; molar ratio 2:1,110.17 ± 2.20 ^d
same,PSH (protein surface hydrophobicity),β-lactoglobulin (BLG) [6]; molar ratio 2:1,193.69 ± 3.87 ^e
same,Kdapp (apparent dissociation constant of ANS),"β-lactoglobulin (BLG) [6]; molar ratio 2:1, c(BLG) = 20.0 µM",5.7 ± 0.1 µM
same,Reduction Rate of PSH,"β-lactoglobulin (BLG) [6]; molar ratio 2:1, versus BLG alone",41.20 ± 0.82 ^a %
same,increase of foaming stability (FS) of BLG,"β-lactoglobulin (BLG) [7]; compared with BLG alone, molar ratio of BLG to Bai/Chr 10:1",85.57%
same,increase of foaming ability (FA) of BLG,"β-lactoglobulin (BLG) [7]; compared with FA of free BLG (25.2%), molar ratios of BLG to Bai/Chr changed from 40:1 to 10:1",51.32%
same,effect on emulsifying stability (ES) of BLG,β-lactoglobulin (BLG) [8]; BLG to Bai/Chr 40:1 to 10:1,did the opposite
same,effect on emulsifying ability (EA) of BLG,β-lactoglobulin (BLG) [8]; with the increase of Bai or Chr concentration (BLG to Bai/Chr 40:1 to 10:1),slightly improved
